Entries after “also recorded” stand apart in the source; their conditions may differ.
Columns and labels:
[1] = Fatigue on repeated photoisomerization cycles; format: physicochemical
Protocol: Upon reaching PSS distribution with green light, thermal back-isomerization was followed in the dark for 14 h (gray background). After this period, violet light was applied (violet rectangle) for 8 min to confirm the presence of the remaining cis-isomer and estimate cis-to-trans ratio. Green light allowed for switching to the cis-isomer once again (green rectangle), showing that in situ isomerization is possible. c Reversible photochromism in cell culture medium followed at 312 nm absorbance. […] The thermally adapted sample is shown in black (dark), irradiated with green light in vitro (pre-incubation, shown in green), with violet light in cellulo (post-incubation, shown in gray), and with green light in vitro followed by violet light in cellulo in purple. The control experiment with longdaysin is also shown. Luminescence rhythm profiles and data for DMSO-treated cells are shown in Supplementary Figs. 25 and 26, respectively. Luminescence is given in arbitrary units. n = 3 biologically independent samples for the CKIα enzymatic assay (d), n = 2 biologically independent samples for the CKIδ enzymatic assay (d), and n = 3 biologically independent samples for the cellular assay (e). […]
Supplementary Figure 30. […] The spectrum is measured at pH 7.4 (0.1 mM in water) and in presence of 0.1 mM concertation of luciferin. […]

U2OS cells = test: Circadian period assay in Bmal1-dLuc U2OS reporter cells; format: cell-based, human
Protocol: Next, we tested if the observed light-dependent CKIα inhibition translates into photomodulation of the circadian period in human U2OS cells (Fig. 2d). The Bmal1-dLuc reporter cell line contains the coding sequence of destabilized luciferase driven by the Bmal1 gene promoter sequence. The cell culture medium for luminescence recording includes a high concentration of luciferin (0.2 mM), a substrate for luciferase, which strongly absorbs UV light (Supplementary Fig. 30). […] As the circadian period change is directly correlated with the potency and concentration of the inhibitor[10], the cells were treated with photoswitchable modulators using a broad range of concentrations.
In comparison to the kinase assay, the direct use of UV light for preventing a thermal back-isomerization of the cis-isomer was not feasible due to the cell-damaging effect and the presence of luciferin in the medium. Therefore, the modulators were kept in the dark or photo-isomerized in DMSO prior to the addition, without further irradiation during the circadian assay. All three modulators lengthened the period in the U2OS cells both in the dark and upon irradiation (Fig. 2d). […] Altogether, based on the efficient generation of the cis-isomer under irradiation, retained potency and promising light-modulation of CKIα inhibition, the meta-substituted modulator 4 was identified as representing lead substitution pattern for further investigation.
Stable U2OS reporter cells harboring Bmal1-dLuc reporter were suspended in phenol red-free culture medium [DMEM (D2902, Sigma) supplemented with 10% fetal bovine serum, 3.5 mg/mL D-glucose, 3.7 mg/mL sodium bicarbonate, 0.29 mg/mL L-glutamine, 100 units/mL penicillin, and 100 µg/mL streptomycin] and plated onto a white, solid-bottom 384-well plates at 30 µL (3000 cells) per well. After 2 days, 40 µL of phenol red-free explant medium [DMEM (D2902, Sigma) supplemented with 2% B27 (Gibco), 10 mM HEPES, 3.5 mg/mL D-glucose, 0.38 mg/mL sodium bicarbonate, 0.29 mg/mL L-glutamine, 100 units/mL penicillin, 100 µg/mL streptomycin, and 0.2 mM luciferin; pH 7.2] was dispensed into each well, followed by the application of 0.5 μL of compounds (dissolved in DMSO; final 0.7% DMSO; pre-irradiated with UV for 60 min, white LED for 10 min, and/or green LED for 60 min when indicated). The plate was covered with an optically clear film, and subjected to irradiation with 530 nm LED lamp (3 × 550 mW, λmax = 530 nm, FWHM 36 nm, Sahlmann Photochemical Solutions) or 400 nm LED lamp (3 × 1000 mW, λmax = 400 nm, FWHM 11.9 nm, Sahlmann Photochemical Solutions) from 12 cm distance for 30 min. Compound handling and irradiation were conducted in a dark room under red lamp illumination. Luminescence was recorded every 100 min in a microplate reader, Infinite M200Pro (Tecan). For the phase control experiments, cellular light irradiation was performed in a dark 32 °C room and luminescence was recorded in a microplate reader Synergy H1 (BioTek) placed in the same room, to avoid possible effect of transient temperature change on the phase. Circadian period and phase were determined from luminescence rhythms by a curve fitting program MultiCycle (Actimetrics). Data from the first day was excluded from analysis, because of transient changes in luminescence upon medium change. Statistical significance was evaluated using two-way analysis of variance (ANOVA) followed by a Sidak’s multiple comparisons test or one-way ANOVA followed by a Tukey’s multiple comparisons test using Prism software (GraphPad Software).

Row | SMILES | fatigue upon repeated illumination cycles [1] | effect of UV light irradiation on period lengthening (U2OS cells; UV (365 nm) pre-irradiated) | recovery of biological activity upon back-isomerization with white light (U2OS cells; UV light followed by white light) | period lengthening effect under dark conditions (U2OS cells; dark) | period change, first 3 days, kept in dark (U2OS cells; 8 μM (Fig. 5b)) [h] | period lengthening, dark treatment of green-irradiated cells, additional 3 days (U2OS cells; 8 μM (Fig. 5b)) [h] | period lengthening, violet light treatment of dark-kept cells (U2OS cells; 8 μM (Fig. 5b)) [h] | period lengthening after violet light on the third day of green-irradiated cells (U2OS cells; 8 μM, 400 nm in situ (Fig. 5b)) [h] | period lengthening, three additional days after green light irradiation (U2OS cells; 8 μM, green light 530 nm in cellulo after 3 days (Fig. 5a)) [h] | period change after photoisomerization with green light in vitro (U2OS cells; 8 µM, green light 530 nm pre-incubation (Fig. 4e)) [h] | period change, first 3 days, green light-irradiated cells (U2OS cells; 8 μM, green light in cellulo at start (Fig. 5b)) [h] | period lengthening after green light in vitro and violet light in cellulo (U2OS cells; 8 µM, in situ back-photoisomerization 400 nm (Fig. 4e)) [h] | period lengthening vs DMSO, three additional days, non-irradiated (U2OS cells; 8 μM, kept dark (Fig. 5a)) [h] | period lengthening, trans-isomer (dark) (U2OS cells; 8 µM, thermally adapted, dark (Fig. 4e)) [h] | period change, first 3 days in the dark (U2OS cells; 8 μM, trans-9 applied (Fig. 5a)) [h] | effect of violet light only on dark samples on the circadian period activity (U2OS cells; violet light 400 nm in cellulo (Fig. 4e))
1 | Cc1nn(C)c(C)c1/N=N/c1cccc(CNc2ncnc3c2ncn3C(C)C)c1 [Compound 8] | low fatigue | suppressed by UV light irradiation | full recovery | strong period lengthening effect |  |  |  |  |  |  |  |  |  |  |  | 
2 | CC(C)n1cnc2c(NCc3ccc(F)c(/N=N/c4c(F)cccc4F)c3F)ncnc21 [Compound 9] | very low fatigue; also recorded: Almost no fatigue |  |  |  | 7 | 5 | 8 | 8 | 2 | 1 | 2 | 4 | 10 | 4 | 5 | no effect

Reference: paper PMC8155176, “Reversible modulation of circadian time with chronophotopharmacology” (Nature Communications, 2021)
